The values below come from article PMC2244645, “Peptide ligand screening of α-synuclein aggregation modulators by in silico panning” (BMC Bioinformatics, 2007).

Peptide text beside a SMILES is read from it.

The target of series [1] is T1, α-synuclein (Homo sapiens, UniProt P37840).
T1 construct: made in house; host or cells: Escherichia coli BL21(DE3)
Briefly: surface plasmon resonance binding (CM5 sensor chip). The note with it: Scatchard plot; for affinity to α-synuclein (in words): peptide immobilized on CM5 chip by amine coupling, α-synuclein injected. The protocol:
The affinities of the screened peptides were determined by surface plasmon resonance measurement. The screened peptides were immobilized on a CM5 sensor chip by amine coupling. […] Thus, we added an alanine residue to the N-terminals of these peptides to immobilize them on the CM5 sensor chip and evaluated them. The dissociation constants were determined using a Scatchard plot. […] In the case of PTYF, its KD was more than 10 times that of QSTQ. Since docking simulation still has problems inaccuracy, we have to evaluate several peptides to find good ligands. In this study, we can obtain the high affinity peptide by assaying the top 4 peptides.
Human wild-type α-synuclein expressed in Escherichia coli BL21(DE3) cells transformed the pET28a/human α-synuclein WT plasmid. Following induction with 1 mM isopropyl-1-thio-β-D-galactopyranoside, the α-synuclein was purified by anion exchange chromatography. The bacterial cells were harvested by centrifugation at 5,000 g for 10 min and lysed in 500 mM NaCl, 20 mM Tris-HCl, pH 8.0, and 1 mM EDTA. The lysate was then boiled for 20 min, and centrifuged for 10 min at 20,000 g. The supernatant was dialyzed against 20 mM Tris-HCl, pH 8.0, loaded onto a ResourseQ 6-ml column (Amersham Biosciences) equilibrated in the same buffer, and eluted with a 0 ~1 M NaCl gradient. The α-synuclein-containing fraction was dialyzed against 10 mM Tris-HCl, pH 7.4.
All peptides were immobilized onto the CM5 sensor chip by amine coupling. The CM5 sensor chip (Biacore) was activated by an equimolar mix of NHS (N-hydroxysuccinimide) and EDC (N-ethyl-N'-(dimethylaminopropyl) carbodiimide), coupled with 100 μg/mL of the synthesized peptide in pH-6.0 sodium acetate buffer, and then blocked with ethanolamine. For reference, only activation and protection was carried out, in the same way as mentioned above. The final coupling level of each peptide was approximately 100 RU. Each of the α-synuclein solutions was injected, and at different concentrations a signal increase was observed. The sensor surface was regenerated using 0.5% SDS. The dissociation constants were determined using a Scatchard plot and an equilibrium point.
On the technique in general: Surface plasmon resonance follows binding to a sensor surface in real time, without labels.

For series [2], the system named is α-synuclein. The note with it: cited from earlier work.
In series [3] the test system is α-synuclein 68–78 (GAVVTGVTAVA). The note with it: ref [14]; cited from earlier work. An excerpt: To obtain an effective peptidic aggregation inhibitor, the peptide should bind to the region that plays an important role in amyloid fibril formation. The hydrophobic central region of α-synuclein called the "non-amyloid-β component of the amyloid plaque" (NAC) (residues 61–95) is the most important region in the formation of amyloid-like fibrils.

The target of series [4] is T1, α-synuclein. In words: light scattering assay at 330 nm (total aggregation). The class given is biochemical. The note with it: 5-fold molar excess of peptide, 10 mM Tris-HCl pH 7.4, 0.02% NaN3, 37°C, shaking. The protocol:
(§1) To determine the effect of peptides on α-synuclein aggregation, we co-incubated α-synuclein with 5-fold molar excess of the screened peptides. The α-synuclein fibril amounts were evaluated by Thioflavin T (TfT) binding assay. It is known that when TfT binds to amyloid fibrils, the fluorescence intensity around 480 nm increases. […] Next, to determine whether or not these increases in fluorescence intensity depend on the fibril amount, we examined the aggregation amount by a light scattering assay at 330 nm. The value of optical density at 330 nm of the α-synuclein solution with the top peptides was also higher compared with that of the α-synuclein solution without peptide, as shown in Figure 4.
Figure 4 Light scattering assay. […] 100% is the optical density at 330 nm of α-synuclein without peptide. […]
(§2) All the protein samples were concentrated to approximately 4.0 mg/ml by means of Amicon Ultra-15 filters (Millipore) in 10 mM Tris-HCl, pH 7.4, and centrifuged at 150,000 g for 60 min to remove the insoluble aggregates. […] Fibril formation was monitored by thioflavin T (TfT) fluorescence: 10 μl aliquots were sampled from the incubated samples and added to 1.0 ml of 25 μM TfT in 10 mM Tris buffer, pH 7.4. Fluorescence emission was measured at 485 nm at an excitation wavelength of 450 nm on a FP6500 spectrofluorometer (JASCO). […]

Series [5] concerns the target T1, α-synuclein. In words: Thioflavin T (TfT) binding assay of α-synuclein fibril formation. The class given is biochemical. The note with it: α-synuclein 140 μM, peptide 700 μM (5-fold molar excess), 10 mM Tris-HCl pH 7.4, 0.02% NaN3, 37°C, shaking; 25 μM TfT. The protocol:
as §1
Figure 3 Time course of α-synuclein fibril formation. […] 100% is the final fluorescence intensity of α-synuclein without peptide. […]
as §2

For the compound “SQTQ [tetramer peptide from in silico panning, rank 3]”, the “affinity to α-synuclein (in words)” value in series [1] is “lower affinity than QSTQ and AQTQ”.

For the compound `N[C@@H](Cc1ccc(O)c(O)c1)C(=O)O` [L-DOPA], in series [2], the “cytotoxicity (in words)” value is listed as “enhance cytotoxicity”.

PTYF: the “KD relative to KD of QSTQ” value in series [1] (peptide immobilized on CM5 chip, alanine residue added to N-terminal) is reported as “more than 10 times”.

In the case of “GSQQ [tetramer peptide from in silico panning, rank 2]”, the “affinity to α-synuclein (in words)” value in series [1] was “lower affinity than QSTQ and AQTQ”.

On to “GAVVTGVTAVA [α-synuclein 68–78, partial peptide in NAC, the target 11-mer peptide]”, for which the “amyloid-like fibril formation by itself (in words)” value in series [3] is listed as “form amyloid-like fibrils by themselves”.

On to `C[C@@H](O)[C@H](NC(=O)[C@H](CO)NC(=O)[C@@H](N)CCC(N)=O)C(=O)N[C@@H](CCC(N)=O)C(=O)O` [QSTQ] (H-QSTQ-OH; N-terminus and C-terminus assumed), for which the “optical density at 330 nm relative to solution without peptide” value in series [4] is reported as “more than 1.5 times”. Also, the “fluorescence intensity of TfT relative to solution without peptide” value in series [5] is “more than 1.5 times”.

For “AQTQ [tetramer peptide from in silico panning, rank 4]”, the “optical density at 330 nm relative to solution without peptide” value in series [4] is recorded as “more than 1.5 times”. The “affinity to α-synuclein (in words)” value in series [1] is reported as “bound to α-synuclein with similar affinity of QSTQ”.
